# Source: patent US20110124588A1, “SYNERGISTIC ACTIVE INGREDIENT COMBINATIONS” (Bayer Cropscience AG, priority 2008, published 2011)
# Read-outs that look alike come from different tables or passages of the source.
# Experiments:
# Phaedon cochleariae = Phaedon cochleariae larvae test (sprayed cabbage leaves); format: in vivo, mustard beetle (Phaedon cochleariae) larvae; details: single active compound; for pest or weed control at 20 g/ha / pest or weed control at 0.8 g/ha / pest or weed control at 100 g/ha / pest or weed control at 0.16 g/ha / pest or weed control at 4 g/ha: Phaedon cochleariae
# Description: (§1) If the actual kill rate exceeds the calculated value, the kill of the combination is superadditive, i.e. a synergistic effect is present. In this case, the actually observed kill rate must exceed the value calculated using the above formula for the expected kill rate (E).
# Solvents: 78 parts by weight of acetone • • 1.5 parts by weight of dimethylformamide Emulsifier: 0.5 part by weight of alkylaryl polyglycol ether
# After the desired period of time, the kill in % is determined 100% means that all beetle larvae have been killed; 0% means that none of the beetle larvae have been killed. The kill rates determined are entered into Colby's formula.
# Myzus persicae = Myzus persicae test (spray treatment of infested cabbage leaves); format: in vivo, green peach aphid (Myzus persicae); details: for pest or weed control at 0.8 g/ha / pest or weed control at 4 g/ha / pest or weed control at 0.032 g/ha / pest or weed control at 0.16 g/ha / pest or weed control at 0.0064 g/ha: Myzus persicae
# Description: as §1
# (§2) solvents: 78 parts by weight of acetone • • 1.5 parts by weight of dimethylformamide emulsifier: 0.5 part by weight of alkylaryl polyglycol ether
# After the desired period of time, the kill in % is determined 100% means that all aphids have been killed; 0% means that none of the aphids have been killed. The kill rates determined are entered into Colby's formula.
# Spodoptera frugiperda = Spodoptera frugiperda larvae test (sprayed cabbage leaves); format: in vivo, army worm (Spodoptera frugiperda) larvae
# Source text: The expected activity of a given combination of two active compounds can be calculated as follows, according to S. R. Colby, Weeds 15 (1967), 20-22:
# X is the kill rate, expressed as a percentage of the untreated control, when employing active compound A at an application rate of m g/ha or in a concentration of m ppm, Y is the kill rate, expressed as a percentage of the untreated control, when employing active compound B at an application rate of n g/ha or in a concentration of n ppm and E is the kill rate, expressed as a percentage of the untreated control, when employing active compounds A and B at application rates of m and n g/ha or in a concentration of m and n ppm, then
# as §1, §2
# To produce a suitable preparation of active compound, 1 part by weight of active compound is mixed with the stated amounts of solvents and emulsifier, and the concentrate is diluted with emulsifier-containing water to the desired concentration.
# Cabbage leaves (Brassica oleracea) are treated by spraying with the active compound preparation of the desired concentration and are populated with larvae of the army worm (Spodoptera frugiperda) while the leaves are still moist.
# After the desired period of time, the kill in % is determined 100% means that all caterpillars have been killed; 0% means that none of the caterpillars have been killed. The kill rates determined are entered into Colby's formula.
# [1] = 48 h, 2 d, read-out: Kill in % after 2 d
# [2] = 144 h, 0.8 g/ha, 6 d, read-out: Kill in % after 6 d
# [3] = 144 h, 6 d, read-out: Kill in % after 6 d
# [4] = 24 h, read-out: Kill in % after 1 d
# [5] = 144 h, read-out: Kill in % after 6 d
# [6] = Spodoptera frugiperda, 144 h, read-out: Kill in % after 6 d
# [7] = Spodoptera frugiperda, 48 h, read-out: Kill in % after 2 d
# [8] = 48 h, 4 g/ha, 2 d, read-out: Kill in % after 2 d
# [9] = 144 h, 4 g/ha, 6 d, read-out: Kill in % after 6 d
# [10] = single active compound, 0.8 g/ha, 6 d
compound,measurement,setting,value
N#CCNC(=O)c1cnccc1C(F)(F)F [flonicamid],pest or weed control at 20 g/ha,Phaedon cochleariae; [1],0%
same,pest or weed control at 0.8 g/ha,Phaedon cochleariae; [2],0%
same,pest or weed control at 100 g/ha,Phaedon cochleariae; [3],0%
same,pest or weed control at 0.8 g/ha,Myzus persicae; [4],0%
same,pest or weed control at 4 g/ha,Myzus persicae; [4],20%
same,pest or weed control at 0.032 g/ha,Myzus persicae; [5],0%
"Cc1cc(C(F)(C(F)(F)F)C(F)(F)F)ccc1NC(=O)c1cccc(I)c1C(=O)NC(C)(C)CS(C)(=O)=O [flubendiamid, flubendiamide]",pest or weed control at 0.8 g/ha,Spodoptera frugiperda; [6],67%
same,pest or weed control at 20 g/ha,Phaedon cochleariae; [3],50%
same,pest or weed control at 0.8 g/ha,Myzus persicae; [4],0%
same,pest or weed control at 4 g/ha,Myzus persicae; [4],0%
O=C(NC(=O)c1c(F)cccc1F)Nc1ccc(Oc2ccc(C(F)(F)F)cc2Cl)cc1F [flufenoxuron],pest or weed control at 100 g/ha,Spodoptera frugiperda; [7],17%
same,pest or weed control at 0.8 g/ha,Spodoptera frugiperda; [6],67%
same,pest or weed control at 100 g/ha,Phaedon cochleariae; [3],0%
CC1(C)[C@H](/C=C(\Cl)C(F)(F)F)[C@@H]1C(=O)O[C@H](C#N)c1cccc(Oc2ccccc2)c1 [gamma-cyhalothrin],pest or weed control at 0.16 g/ha,Spodoptera frugiperda; [6],17%
same,pest or weed control at 0.16 g/ha,Phaedon cochleariae; [3],0%
same,pest or weed control at 0.032 g/ha,Myzus persicae; [5],0%
O=[N+]([O-])/N=C1\NCCN1Cc1ccc(Cl)nc1 [imidacloprid],pest or weed control at 4 g/ha,Phaedon cochleariae; [8],0%
same,pest or weed control at 4 g/ha,Phaedon cochleariae; [9],0%
same,pest or weed control at 20 g/ha,Phaedon cochleariae; [3],50%
same,pest or weed control at 0.16 g/ha,Myzus persicae; [4],50%
O=[N+]([O-])/N=C1\NCCN1Cc1cnc(Cl)s1 [imidaclothiz],pest or weed control at 4 g/ha,Phaedon cochleariae; [9],0%
COC(=O)N(C(=O)N1COC2(C(=O)OC)Cc3cc(Cl)ccc3C2=N1)c1ccc(OC(F)(F)F)cc1 (stereo not drawn) [indoxacarb],pest or weed control at 4 g/ha,Phaedon cochleariae; [8],0%
same,pest or weed control at 20 g/ha,Phaedon cochleariae; [1],33%
same,pest or weed control at 0.8 g/ha,Myzus persicae; [5],0%
CC1(C)C(/C=C(\Cl)C(F)(F)F)C1C(=O)OC(C#N)c1cccc(Oc2ccccc2)c1 (stereo not drawn) [lambda-cyhalothrin],pest or weed control at 0.8 g/ha,Spodoptera frugiperda; [6],67%
same,pest or weed control at 0.16 g/ha,Phaedon cochleariae; [3],17%
same,pest or weed control at 0.0064 g/ha,Myzus persicae; [5],0%
same,pest or weed control at 0.032 g/ha,Myzus persicae; [5],0%
O=C(NC(=O)c1c(F)cccc1F)Nc1cc(Cl)c(OC(F)(F)C(F)C(F)(F)F)cc1Cl (stereo not drawn) [lufenuron],pest or weed control at 100 g/ha,Spodoptera frugiperda; [7],0%
same,pest or weed control at 100 g/ha,Phaedon cochleariae; [1],0%
COc1cccc(C(=O)NN(C(=O)c2cc(C)cc(C)c2)C(C)(C)C)c1C [methoxyfenozide],pest or weed control at 4 g/ha,Spodoptera frugiperda; [6],50%
same,pest or weed control at 20 g/ha,Phaedon cochleariae; [3],0%
same,pest or weed control at 0.16 g/ha,Myzus persicae; [5],0%
same,pest or weed control at 0.8 g/ha,Myzus persicae; [5],0%
CCCSP(=O)(OCC)Oc1ccc(Br)cc1Cl (stereo not drawn) [profenofos],pest or weed control at 20 g/ha,Phaedon cochleariae; [1],50%
FC(F)(F)c1ccc(OCCCOc2c(Cl)cc(OCC=C(Cl)Cl)cc2Cl)nc1 [pyridalyl],pest or weed control at 20 g/ha,Spodoptera frugiperda; [7],67%
N#C/N=C1\SCCN1Cc1ccc(Cl)nc1 [thiacloprid],pest or weed control at 20 g/ha,Spodoptera frugiperda; [6],50%
same,pest or weed control at 20 g/ha,Phaedon cochleariae; [3],50%
same,pest or weed control at 0.16 g/ha,Myzus persicae; [4],0%
CN1COCN(Cc2cnc(Cl)s2)/C1=N/[N+](=O)[O-] [thiamethoxam],pest or weed control at 0.8 g/ha,Phaedon cochleariae; [2],0%
same,pest or weed control at 0.0064 g/ha,Myzus persicae; [5],0%
same,pest or weed control at 0.032 g/ha,Myzus persicae; [5],0%
O=C(NC(=O)c1ccccc1Cl)Nc1ccc(OC(F)(F)F)cc1 [triflumuron],pest or weed control at 0.8 g/ha,Spodoptera frugiperda; [6],33%
"CC1(C)C(C=C(Cl)Cl)C1C(=O)OC(C#N)c1ccc(F)c(Oc2ccccc2)c1 (stereo not drawn) [β-cyfluthrin, betacyfluthrin]",pest or weed control at 0.16 g/ha,Spodoptera frugiperda; [6],0%
same,pest or weed control at 0.16 g/ha,Phaedon cochleariae; [3],0%
same,pest or weed control at 0.0064 g/ha,Myzus persicae; [5],0%
same,pest or weed control at 0.032 g/ha,Myzus persicae; [5],0%
milbemectin,Kill in % after 6 d,Spodoptera frugiperda; [10],0%
same,Kill in % after 6 d,"Phaedon cochleariae; 0.8 g/ha, 6 d",0%
pyridaben,Kill in % after 6 d,"Phaedon cochleariae; 4 g/ha, 6 d",50%
same,Kill in % after 6 d,Myzus persicae; [10],0%
